{"source": "paper PMC10451668", "about": "“Natural Acetogenins, Chatenaytrienins-1, -2, -3 and -4, Mitochondrial Potential Uncouplers and Autophagy Inducers—Promising Anticancer Agents” (Antioxidants, 2023)", "assay_type_in_all_cases": "cell-based, human", "key": {"[1]": {"experiment": "Cytotoxicity assay (7-AAD viability, flow cytometry)", "conditions": "human; normal fibroblasts; ± standard error of the mean, 95% CI in parenthesis"}, "Jurkat tumor cell line": {"test_system": "Jurkat tumor cell line", "experiment": "Assessment of cytochrome c loss (FlowCellect Cytochrome c Kit)", "conditions": "compound at CC50, incubation 3 h, anti-cytochrome c-FITC", "description": "Quantification of cytochrome c release from mitochondria in apoptotic cells was presented to detect the mitochondrial pathway of apoptosis in cells using flow cytometry with the FlowCellect™ Cytochrome c Kit (FCCH100110). For this, cells were treated with FITC-conjugated antibodies against cytochrome c and control anti-IgG1-FITC, together with the use of an optimized fixation procedure, permeabilization, and blocking buffer (Luminex®, USA). […] Jurkat cells were incubated for 4 h with the synthesized substances at a concentration corresponding to their 24-h CC50 in a culture plate and assessed using the NovoCyte Penteon Flow Cytometer System (Agilent, 5301 Stevens Creek Blvd., Santa Clara, CA, USA). The obtained data were processed using NovoExpress® software (ACEA)."}, "Jurkat cells": {"test_system": "Jurkat cells", "experiment": "Assessment of autophagy (anti-LC3/FITC, flow cytometry)", "conditions": "0.5 CC50, 48 h", "excerpt": "Autophagy is involved in various physiological processes and its changes are associated with the pathogenesis of diseases such as neurodegenerative diseases, cardiovascular complications, cancer, and infectious diseases, as well as with physiological processes such as innate and specific immunity, pathogen clearance, lymphocyte selection, antigen presentation, and production of immunoglobulins. Therefore, the determination of LC3 protein inside autophagosomes without the cytosolic form of LC3-I at the stage of selective cell permeability was measured using flow cytometry. Thus, using the FlowCellect™ LC3-GFP Reporter Autophagy Assay Kit (FCCH100170 and FCCH100181), flow cytometry allowed for a rapid assay that could be combined with other phenotypic and functional markers to characterize different cell populations.\nCanonical autophagy is associated with the conversion of LC3 protein (an autophagosome marker) from the cytoplasmic form of LC3I to the lipid-bound form of LC3II, which is associated with the membranes of maturing autophagosomes. The autophagy process can be conveniently classified into several stages. First, induction and translocation of the cytoplasmic LC3 protein occur due to the influence of external stimuli (adverse environmental influences)—the process is initiated by external/internal stimuli (for example, nutrient depletion or hypoxia). Then, the formation of autophagosomes begins, which are double-membrane vesicles that include the LC3 protein. This protein regulates the fusion of autophagosomes and lysosomes. It exists in two fractions—cytoplasmic LC3-I and LC3-II, isolated in the autophagosomal membrane. The LC3-II protein fraction was specified in our work, as its detection is a reliable indicator of the processes of autophagy in the cell."}, "Jurkat cell lysates": {"test_system": "Jurkat cell lysates", "experiment": "Multiplex analysis of signaling, genotoxicity and early apoptosis proteins (MILLIPLEX MAP, Luminex)", "description": "Multiplex analysis was performed according to a previously published method. MILLIPLEX®MAP technology is used to determine the total protein or phosphorylated protein levels of various biological analytes, such as kinases or signaling proteins, including CREB, ERK/MAP, p70 S6, p21, p38, PI3K/AKT/mTOR, JNK (A), p53, MDM2, Bcl-2/Bax, STAT3 and STAT5, Nf-kB, Caspase 3-8-9, JNK, ATM, Chk1, Chk2, and H2AX, in cell lysates using the Luminex® system ((MILLIPLEX Multi-Pathway Magnetic Bead 9-Plex—Cell Signaling Multiplex Assay kit, Merk, Germany). This MILLIPLEX®MAP technology provides an alternative to Western blotting and immunoprecipitation and has several important advantages, such as more accurate measurement of small amounts of protein and the elimination of analyte loss during sample preparation. The multiplex immunoassay (MILLIPLEX 48-680MAG; Merck Millipore, Germany) was performed in Millipore 96-well plates to detect changes in concentrations of phosphorylated and unphosphorylated proteins p53, MDM2, p21, p38, PI3K/AKT/mTOR, Bcl-2/Bax, STAT3 and STAT5, Nf-kB, Caspase 3 -8-9, CREB, ERK/MAP, p70 S6, JNK, ATM, Chk1, Chk2, and H2AX in Jurkat cell lysates.\nThe levels of phosphorylated and non-phosphorylated proteins were analyzed using MILLIPLEX® map technology to study the analytes in the same sample within a fairly short time. Various deviations in protein concentration due to external factors or detection errors that could affect the results of the experiment were thereby reduced to zero.\nThe expression of p53, MDM2, p21, p38, PI3K/AKT/mTOR, Bcl-2/Bax, STAT3 and STAT5, Nf-kB, Caspase 3-8-9, CREB, ERK/MAP, p70 S6, JNK, ATM, Chk1, Chk2, and H2AX proteins in lysate samples of Jurkat tumor cells were studied using Luminex technology with the MILLIPLEX® MAP 9-Plex Multi-Pathway 9-plex Magnetic Bead Kit. This bead-based assay involved color-coded fluorescent particles pre-coated with specific antibodies targeting 9 major kinases in signaling pathways."}}}
{"smiles": "CCCCCCCCCC/C=C\\CC/C=C\\CC/C=C\\CCCCCCCCCCC1=C[C@H](C)OC1=O", "note": "[compound 1, chatenaytrienin-1]", "values": [{"measurement": "CC50", "setting": "[1]", "value": "690 ± 40", "unit": "nM"}, {"measurement": "cells with cytochrome c released into the cytoplasm (Negative gate)", "setting": "Jurkat tumor cell line", "value": 61.67, "unit": "%"}, {"measurement": "cells with autophagy (gate M3-2)", "setting": "Jurkat cells", "value": 96.26, "unit": "%"}, {"measurement": "expression of caspase-8", "setting": "Jurkat cell lysates; 6 h and 12 h", "value": "did not significantly affect"}, {"measurement": "levels of Akt, p38, and CREB", "setting": "Jurkat cell lysates; compound at CC50, 4 h", "value": "most pronouncedly suppressed"}, {"measurement": "levels of all types of kinase proteins (CREB, JNK, NFkB, p38, ERK1/2, Akt, p70S6K, STAT3, STAT5)", "setting": "Jurkat cell lysates; compound at CC50, 4 h, MFI versus intact cells", "value": "most pronouncedly reduced"}, {"measurement": "cleaved caspase-9", "setting": "Jurkat cell lysates; especially after 12 h, level exceeded control", "value": "promoted the accumulation"}, {"measurement": "level of BAD protein", "setting": "Jurkat cell lysates; first 6 h, within 12 h began to increase again, not reaching control", "value": "decreased"}]}
